We go through 14 compounds from patent publication US12083101B2, “Biaryl derivatives as YAP/TAZ-TEAD protein-protein interaction inhibitors” (Novartis AG, priority 2020, dated 2024).

Molecules are shown by their SMILES. A value given as a limit tells only on which side of the number the result lay.

The subject of assay [1] is MKN-45/Ubc-luc cells. In words: Proliferation assay (resazurin), MKN-45. The conditions noted are these: Homo sapiens, 72 hours incubation. It is filed as cell-based. The procedure: As a specificity control, MKN-45 cells were stably transduced with a Ubc-Luc reporter construct, in which constitutive expression of firefly luciferase is driven by the promoter of the ubiquitin C housekeeping gene.
(§1) Stock solutions of compounds were prepared at a concentration of 10 mM in DMSO and stored at 4° C. Where necessary to afford a full dose-response curve, the stock solutions were pre-diluted in DMSO to 1'000-fold the desired reduced start concentration. On the day after cell seeding, eleven 2-fold serial dilutions of each compound were dispensed directly into the cell assay plates using a HP 300D non-contact Digital Dispenser (TECAN, Mannedorf, Switzerland). The final concentration of DMSO was normalized to 0.1% in all wells.
(§2) The functional effect of compounds on cell proliferation was assessed using NCI-H2052 Tet-On shYAP_2371 pLenti6 MCAT_Luc and MKN-45/Ubc-luc cells by quantifying the reducing capacity of live cells using the redox indicator dye resazurin. […] For data analysis, the assay background value determined in wells containing medium, but no cells, was subtracted from all data points. […] The effect of a particular test compound concentration on cell proliferation/viability was expressed as percentage of day 0-corrected fluorescence reading obtained for cells treated with vehicle only (DMSO, final concentration 0.1%), which was set as 100%, whereas the fluorescence reading for wells containing medium only, but no cells, was set as −100%. Compound concentrations leading to half-maximal growth inhibition (GI50) were determined using standard four parameter curve fitting.

In assay [2] the test system is NCI-H2052 Tet-On shYAP_2371 pLenti6 MCAT_Luc cells. The assay can be described thus: Proliferation assay (resazurin), NCI-H2052. Type of assay: cell-based. The conditions noted are these: Homo sapiens, NCI-H2052, 72 h, 72 hours incubation. On the procedure:
(§3) This cell line was also transduced with a Tet-pLKO-puro-based construct mediating tetracycline-inducible expression of a short-hairpin directed against the 3′UTR of the YAP1 mRNA (5′-[…]-3′).
as §1, §2

Assay [3] deals with NCI-H2052 Tet-On shYAP_2371 pLenti6 MCAT_Luc cells (YAP-dependent transcription). The assay can be described thus: YAP reporter gene activity assay (MCAT-luciferase), NCI-H2052. Type of assay: cell-based. The conditions noted are these: Homo sapiens, NCI-H2052, 24 h, 24 hours incubation, BrightGlo luminescence. On the procedure:
as §3, §1
The ability of compounds to inhibit YAP-dependent transcription was assessed in NCI-H2052 Tet-On shYAP_2371 pLenti6 MCAT_Luc cells, while specificity (lack of unspecific inhibition of luciferase expression of activity) was assessed in MKN-45/Ubc-luc cells. […] Following incubation for 24 hours at 37° C., compound-mediated modulation of reporter-gene activity was quantified 5 min after addition of 20 μl BrightGlo (Promega, Cat #E2620), by measuring luminescence intensity on a multi-mode plate-reader (TECAN, Männedorf, Switzerland, Integration time 100 ms). For data analysis, the assay background value determined in wells containing medium, but no cells, was subtracted from all data points. Dose-dependent compound effects were expressed as % of vehicle-treated control (luminescence signal produced by cells receiving DMSO only) and IC50s calculated using a four-parametric fit model.
Background: In a reporter assay the amount or activity of a reporter protein is the signal.

Assay [4] concerns MKN-45/Ubc-luc cells. The assay can be described thus: Reporter gene specificity control (Ubc-luciferase), MKN-45. The conditions noted are these: Homo sapiens, MKN-45, 24 h, read-out: Reporter gene assay MKN-45 IC50 [μM], MKN-45/Ubc-luc cells (YAP deleted, specificity control), 24 hours incubation.
In assay [5] the target is Avi-humanTEAD4 217-434 / Cy5 labeled humanYAP 60-100 (Homo sapiens (Human), UniProt Q15561). In words: TR-FRET YAP-TEAD4 in-vitro biochemical assay. Type of assay: binding. The conditions noted are these: 1 nM Avi-humanTEAD4 217-434, 20 nM Cy5-humanYAP 60-100, 1 h room temperature. Background: Time-resolved FRET reads energy transfer from a long-lived donor to a nearby acceptor.

The term GI50 denotes the concentration giving 50% growth inhibition. A lower GI50 goes with greater sensitivity of the cells.

Avi-humanTEAD4 217-434 / Cy5 labeled humanYAP 60-100, sequence (Q15561 217-434): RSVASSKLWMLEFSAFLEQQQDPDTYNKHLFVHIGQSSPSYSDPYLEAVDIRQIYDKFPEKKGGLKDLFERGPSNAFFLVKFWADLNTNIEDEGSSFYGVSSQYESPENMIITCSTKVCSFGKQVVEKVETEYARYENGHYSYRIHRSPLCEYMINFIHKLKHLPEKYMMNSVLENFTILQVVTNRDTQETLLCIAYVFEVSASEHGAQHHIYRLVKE

For `NC[C@@]1(c2ccccc2)Cc2c(ccc(Cl)c2-c2c(F)cccc2C(N)=O)O1` (atropisomer, axis not shown) [Example 4a-1, 2-((2S,4S)-2-(aminomethyl)-5-chloro-2-phenyl-2,3-dihydrobenzofuran-4-yl)-3-fluorobenzamide], the GI50 is greater than 10000 nM with MKN-45/Ubc-luc cells [1] and 590 nM in assay [2]. The results for the IC50 (in assay [3]; in the assay on MKN-45/Ubc-luc cells [4]; in assay [5]) were 600 nM, greater than 10 µM and 20 nM, respectively.

Regarding `NC[C@@]1(c2ccccc2)Cc2c(ccc(Cl)c2-c2c(C(N)=O)ccc(OCCO)c2F)O1` (atropisomer, axis not shown) [Example 10, 2-((2S,4S)-2-(aminomethyl)-5-chloro-2-phenyl-2,3-dihydrobenzofuran-4-yl)-3-fluoro-4-(2-hydroxyethoxy)benzamide], the 50% growth inhibitory concentration (GI50) was greater than 10000 nM in the assay on MKN-45/Ubc-luc cells [1] and 99 nM in assay [2]. For the same compound, the IC50 in assay [3] is 64 nM; in the assay on MKN-45/Ubc-luc cells [4], greater than 10 µM; in assay [5], 3 nM.

On to `NC[C@@]1(c2ccccc2)Cc2c(ccc(Cl)c2-c2c(C(N)=O)ccc(OC(F)F)c2F)O1` (atropisomer, axis not shown) [Example 11, 2-((2S,4S)-2-(aminomethyl)-5-chloro-2-phenyl-2,3-dihydrobenzofuran-4-yl)-4-(difluoromethoxy)-3-fluorobenzamide], for which the figures for the GI50 (with MKN-45/Ubc-luc cells [1]; in assay [2]) were greater than 10000 nM and 284 nM, respectively. The IC50 in assay [3] was 173 nM; with MKN-45/Ubc-luc cells [4], greater than 20 µM; in assay [5], 21 nM.

On to `C[C@H](O)COc1ccc(C(N)=O)c(-c2c(Cl)ccc3c2C[C@@](CN)(c2ccccc2)O3)c1F` (atropisomer, axis not shown) [Example 13, 2-((2S,4S)-2-(aminomethyl)-5-chloro-2-phenyl-2,3-dihydrobenzofuran-4-yl)-3-fluoro-4-((S)-2-hydroxypropoxy)benzamide], for which the figures for the GI50 (in the assay on MKN-45/Ubc-luc cells [1]; in assay [2]) were greater than 10000 nM and 166 nM, respectively. Further, the IC50 is 102 nM in assay [3], greater than 10 µM in the assay with MKN-45/Ubc-luc cells [4] and 6 nM in assay [5].

With `C[C@@H](O)COc1ccc(C(N)=O)c(-c2c(Cl)ccc3c2C[C@@](CN)(c2ccccc2)O3)c1F` (atropisomer, axis not shown) [Example 14, 2-((2S,4S)-2-(aminomethyl)-5-chloro-2-phenyl-2,3-dihydrobenzofuran-4-yl)-3-fluoro-4-((R)-2-hydroxypropoxy)benzamide], the GI50 was greater than 10000 nM with MKN-45/Ubc-luc cells [1] and 190 nM in assay [2]. Further, the IC50 in assay [3] was 176 nM; in the assay on MKN-45/Ubc-luc cells [4] it was greater than 10 µM; in assay [5] it was 15 nM.

Take `C[C@@H](F)COc1ccc(C(N)=O)c(-c2c(Cl)ccc3c2C[C@@](CN)(c2ccccc2)O3)c1F` (atropisomer, axis not shown) [Example 15, 2-((2S,4S)-2-(aminomethyl)-5-chloro-2-phenyl-2,3-dihydrobenzofuran-4-yl)-3-fluoro-4-((R)-2-fluoropropoxy)benzamide]: the values for the GI50 (in the assay with MKN-45/Ubc-luc cells [1]; in assay [2]) were greater than 10000 nM and 276 nM, respectively. Moreover, the IC50 is 270 nM in assay [3], greater than 10 µM in the assay on MKN-45/Ubc-luc cells [4] and 10 nM in assay [5].

Regarding `COc1ncc(C(N)=O)c(-c2c(Cl)ccc3c2C[C@@](CN)(c2ccccc2)O3)c1F` (atropisomer, axis not shown) [Example 18, 4-((2S,4S)-2-(Aminomethyl)-5-chloro-2-phenyl-2,3-dihydrobenzofuran-4-yl)-5-fluoro-6-methoxynicotinamide], the GI50 with MKN-45/Ubc-luc cells [1] is greater than 12500 nM; in assay [2], 553 nM. In addition, the IC50 came to 379 nM in assay [3], 19.5 µM in the assay on MKN-45/Ubc-luc cells [4] and 4 nM in assay [5].

Take `CNc1ccc(C(N)=O)c(-c2c(Cl)ccc3c2C[C@@](CN)(c2ccccc2)O3)c1F` (atropisomer, axis not shown) [Example 20, 2-((2S,4S)-2-(Aminomethyl)-5-chloro-2-phenyl-2,3-dihydrobenzofuran-4-yl)-3-fluoro-4-(methylamino)benzamide]: the GI50 with MKN-45/Ubc-luc cells [1] was greater than 10000 nM; in assay [2] it was 6880 nM. Also, the IC50 in assay [3] is 2920 nM; in the assay with MKN-45/Ubc-luc cells [4], greater than 10 µM; in assay [5], 124 nM.

As for `CNC[C@@]1(c2ccccc2)Cc2c(ccc(Cl)c2-c2c(C(N)=O)ccc(OC)c2F)O1` (atropisomer, axis not shown) [Example 21, 2-((2S,4S)-5-Chloro-2-((methylamino)methyl)-2-phenyl-2,3-dihydrobenzofuran-4-yl)-3-fluoro-4-methoxybenzamide], the concentration for 50% growth inhibition (GI50) was greater than 10000 nM in the assay with MKN-45/Ubc-luc cells [1] and 247 nM in assay [2]. Further, the IC50 is 154 nM in assay [3], greater than 10 µM in the assay on MKN-45/Ubc-luc cells [4] and 4 nM in assay [5].

As to `CNC(=O)c1ccc(OC)c(F)c1-c1c(Cl)ccc2c1C[C@@](CN)(c1ccccc1)O2` (atropisomer, axis not shown) [Example 22, 2-((2S,4S)-2-(Aminomethyl)-5-chloro-2-phenyl-2,3-dihydrobenzofuran-4-yl)-3-fluoro-4-methoxy-N-methylbenzamide], the figures for the GI50 (in the assay on MKN-45/Ubc-luc cells [1]; in assay [2]) were greater than 10000 nM and 256 nM, respectively. The IC50 in assay [3] was 157 nM; with MKN-45/Ubc-luc cells [4], greater than 20 µM; in assay [5] it was 9 nM.

For `COc1ccc(C(=O)Nc2cccnc2)c(-c2c(Cl)ccc3c2C[C@@](CN)(c2ccccc2)O3)c1F` (atropisomer, axis not shown) [Example 25, 2-((2S,4S)-2-(aminomethyl)-5-chloro-2-phenyl-2,3-dihydrobenzofuran-4-yl)-3-fluoro-4-methoxy-N-(pyridin-3-yl)benzamide], the GI50 with MKN-45/Ubc-luc cells [1] is greater than 10000 nM; in assay [2], 145 nM. For the same compound, the IC50 is 106 nM in assay [3], greater than 10 µM with MKN-45/Ubc-luc cells [4] and 5 nM in assay [5].

Take `CNC[C@@]1(c2ccccc2)Cc2c(ccc(Cl)c2-c2c(C(=O)NC)ccc(OC)c2F)O1` (atropisomer, axis not shown) [Example 26, 2-((2S,4S)-5-Chloro-2-((methylamino)methyl)-2-phenyl-2,3-dihydrobenzofuran-4-yl)-3-fluoro-4-methoxy-N-methylbenzamide]: the GI50 with MKN-45/Ubc-luc cells [1] is greater than 10000 nM; in assay [2] it was 310 nM. For the same compound, the figures for the IC50 (in assay [3]; with MKN-45/Ubc-luc cells [4]; in assay [5]) were 144 nM, greater than 20 µM and 21 nM, respectively.

Take `CNC(=O)c1ccc(OCCO)c(F)c1-c1c(Cl)c(F)cc2c1C[C@@](CN)(c1ccccc1)O2` (atropisomer, axis not shown) [Example 44, 2-((2S,4S)-2-(Aminomethyl)-5-chloro-6-fluoro-2-phenyl-2,3-dihydrobenzofuran-4-yl)-3-fluoro-4-(2-hydroxyethoxy)-N-methylbenzamide]: the 50% growth inhibitory concentration (GI50) is greater than 10000 nM in the assay on MKN-45/Ubc-luc cells [1] and 109 nM in assay [2]. For the same compound, the IC50 in assay [3] is 69 nM; with MKN-45/Ubc-luc cells [4], greater than 10 µM.

On to `CO[C@H]1c2c(cc(F)c(Cl)c2-c2c(C(N)=O)ccc(OCCO)c2F)O[C@]1(CN)c1ccccc1` (atropisomer, axis not shown) [Example 101, 2-((2S,3S,4S)-2-(Aminomethyl)-5-chloro-6-fluoro-3-methoxy-2-phenyl-2,3-dihydrobenzofuran-4-yl)-3-fluoro-4-(2-hydroxyethoxy)benzamide], for which the GI50 was greater than 10000 nM in the assay on MKN-45/Ubc-luc cells [1] and 106 nM in assay [2]. For the same compound, the IC50 in assay [3] is 67 nM; with MKN-45/Ubc-luc cells [4] it was greater than 10 µM.
